Results: ChEMBL document CHEMBL1201862, “PubChem BioAssay data set” (2004)
The source made the active and inactive calls.

Key:
[1] = viability of uninfected HEp-2 cells – cell-based, HTS, cytotoxicity control for RSV inhibitor project, dose response (AID 2410); assay type: functional; settings: human respiratory syncytial virus
[2] = cells
[3] = NIH3T3 cell viability loss – ATP luminescence, mouse fibroblasts, counter-screen, dose response (AID 2010); assay type: functional, cell-based;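 note: cells exposed to compound for about 90 hours before reading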
[4] = A Cell Based Secondary Assay To Explore Cytotoxicity of Compounds that Sensitize Mycobacterium Tuberculosis to Beta-Lactam Antibiotics.; assay type: functional
[5] = Trypanosoma cruzi growth suppression in host cells – NIH3T3 host cells, beta-gal luminescence, confirmation (AID 2044); assay type: functional, cell-based;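 note: intracellular parasites grown in NIH/3T3 mouse fibroblasts as host cells; luminescent beta-galactosidase reporter signal from transgenic T. cruzi replicating inside host cells; inhibitors lower the luminescence signal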
[6] = target: T1, Heat shock factor protein 1 (Mus musculus, UniProt P38532); assay: decrease of HSF1-responsive luciferase luminescence – cell-based, NIH3T3, dose retest, confirmation (AID 2382); assay type: functional;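 note: NIH3T3 fibroblasts with HSF1-driven luciferase reporter stressed by proteasome inhibitor MG132; luminescence from HSF1-driven luciferase expression after 8 hours of MG132 stress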
T1 sequence (P38532 whole entry): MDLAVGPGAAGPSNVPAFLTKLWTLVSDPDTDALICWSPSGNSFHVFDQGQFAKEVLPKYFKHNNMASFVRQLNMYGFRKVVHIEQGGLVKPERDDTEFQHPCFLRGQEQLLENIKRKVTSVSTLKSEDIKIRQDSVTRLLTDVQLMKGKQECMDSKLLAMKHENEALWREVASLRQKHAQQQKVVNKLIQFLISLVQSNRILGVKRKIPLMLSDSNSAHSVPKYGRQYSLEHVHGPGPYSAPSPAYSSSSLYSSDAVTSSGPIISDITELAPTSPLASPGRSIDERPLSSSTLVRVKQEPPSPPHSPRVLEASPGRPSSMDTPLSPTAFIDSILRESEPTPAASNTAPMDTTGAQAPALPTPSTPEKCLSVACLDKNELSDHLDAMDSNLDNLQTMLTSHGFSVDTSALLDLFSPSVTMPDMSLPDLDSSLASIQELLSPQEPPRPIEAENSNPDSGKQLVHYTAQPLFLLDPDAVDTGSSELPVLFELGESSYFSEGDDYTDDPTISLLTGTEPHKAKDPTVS

[7] = target: FAD-linked sulfhydryl oxidase ALR (Homo sapiens, UniProt P55789); assay: ALR-catalysed DTT oxidation blockers – biochemical, H2O2 detection, luminescence, cherry-pick, dose response (AID 493248)
[8] = tested on: HT-1080; assay: HT1080 cell viability loss – fluorescence readout (AID 620); assay type: functional, cell-based; settings: Homo sapiens
[9] = target: Luciferin 4-monooxygenase (Photinus pyralis, UniProt P08659); assay: Counter Screen for Luciferase-based Assay Positives. [Related pubchem assays: 620, 618, 411 ]
[10] = target: T2, Caspase-3 (Homo sapiens, UniProt P42574); assay type: functional;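 note: Dose-response selectivity test against caspase-3 for candidate inhibitors of sentrin-specific proteases (SENPs)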
T2 sequence (P42574 whole entry): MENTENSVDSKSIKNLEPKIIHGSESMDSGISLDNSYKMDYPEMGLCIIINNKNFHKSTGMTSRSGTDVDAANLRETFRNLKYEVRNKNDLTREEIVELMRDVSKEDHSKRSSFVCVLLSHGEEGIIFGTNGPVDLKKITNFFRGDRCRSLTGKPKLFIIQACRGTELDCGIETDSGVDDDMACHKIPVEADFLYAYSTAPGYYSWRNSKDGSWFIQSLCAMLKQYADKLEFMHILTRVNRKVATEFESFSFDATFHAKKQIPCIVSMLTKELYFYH

[11] = target: T3, Sentrin-specific protease 8 (Homo sapiens, UniProt Q96LD8); assay type: functional;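 note: luminescence read-out of SENP8 inhibition, dose-response confirmation following an ultra-high-throughput screen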
T3 sequence (Q96LD8 whole entry): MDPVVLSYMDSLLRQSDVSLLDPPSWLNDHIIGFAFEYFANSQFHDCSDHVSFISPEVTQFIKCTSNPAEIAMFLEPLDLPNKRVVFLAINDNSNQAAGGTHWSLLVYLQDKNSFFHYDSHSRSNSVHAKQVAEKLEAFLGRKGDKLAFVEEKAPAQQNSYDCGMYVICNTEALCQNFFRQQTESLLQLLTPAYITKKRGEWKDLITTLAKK

[12] = target: T4, Sentrin-specific protease 7 (Homo sapiens, UniProt Q9BQF6); assay type: functional;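 note: Luminescence-based dose-response confirmation of ultra-high-throughput screening hits, measuring inhibition of SENP7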
T4 sequence (Q9BQF6 whole entry): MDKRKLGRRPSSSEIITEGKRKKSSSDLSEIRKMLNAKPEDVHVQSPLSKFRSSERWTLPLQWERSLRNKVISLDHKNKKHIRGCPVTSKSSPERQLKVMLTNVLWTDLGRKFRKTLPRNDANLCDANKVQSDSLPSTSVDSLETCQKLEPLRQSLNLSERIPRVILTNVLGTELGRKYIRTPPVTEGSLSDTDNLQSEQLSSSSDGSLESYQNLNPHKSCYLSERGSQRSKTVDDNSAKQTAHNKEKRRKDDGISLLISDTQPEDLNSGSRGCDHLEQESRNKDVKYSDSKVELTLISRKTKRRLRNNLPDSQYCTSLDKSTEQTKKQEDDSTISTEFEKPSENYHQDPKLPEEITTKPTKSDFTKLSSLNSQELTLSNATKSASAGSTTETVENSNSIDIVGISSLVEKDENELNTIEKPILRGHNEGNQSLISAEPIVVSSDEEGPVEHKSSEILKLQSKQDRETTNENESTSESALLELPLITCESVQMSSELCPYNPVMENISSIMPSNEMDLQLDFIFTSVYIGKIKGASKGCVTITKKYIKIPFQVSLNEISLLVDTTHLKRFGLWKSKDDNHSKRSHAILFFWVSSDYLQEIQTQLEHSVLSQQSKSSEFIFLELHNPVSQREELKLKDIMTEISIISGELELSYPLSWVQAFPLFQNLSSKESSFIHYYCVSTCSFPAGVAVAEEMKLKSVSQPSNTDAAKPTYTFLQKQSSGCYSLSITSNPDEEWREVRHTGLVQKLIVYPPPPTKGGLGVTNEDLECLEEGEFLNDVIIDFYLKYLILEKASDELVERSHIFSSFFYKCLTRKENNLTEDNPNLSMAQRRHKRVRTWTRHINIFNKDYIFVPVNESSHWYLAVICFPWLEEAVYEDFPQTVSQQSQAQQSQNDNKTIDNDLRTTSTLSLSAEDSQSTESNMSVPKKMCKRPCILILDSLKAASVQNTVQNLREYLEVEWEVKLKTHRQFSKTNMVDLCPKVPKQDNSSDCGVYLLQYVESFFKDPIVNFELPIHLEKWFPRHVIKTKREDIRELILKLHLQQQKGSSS

[13] = target: T5, Bcl-2-related protein A1 (Mus musculus, UniProt Q07440); assay: small-molecule antagonists of Bfl-1/BH3 interaction – biochemical, TR-FRET, mouse Bfl-1, confirmation (AID 621);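 note: TR-FRET binding of GST-Bfl-1 to FITC-labelled Bid peptide via terbium antibody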
T5 sequence (Q07440 whole entry): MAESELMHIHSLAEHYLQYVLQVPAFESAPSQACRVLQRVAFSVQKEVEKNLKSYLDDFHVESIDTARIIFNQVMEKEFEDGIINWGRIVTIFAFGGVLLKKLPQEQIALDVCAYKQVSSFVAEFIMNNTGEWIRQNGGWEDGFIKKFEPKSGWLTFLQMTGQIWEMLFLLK

[14] = target: T6, Sentrin-specific protease 6 (Homo sapiens, UniProt Q9GZR1); assay type: functional;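 note: Luminescence-based dose-response confirmatory assay of SENP6 inhibition, following up an ultra-high-throughput screen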
T6 sequence (Q9GZR1 whole entry): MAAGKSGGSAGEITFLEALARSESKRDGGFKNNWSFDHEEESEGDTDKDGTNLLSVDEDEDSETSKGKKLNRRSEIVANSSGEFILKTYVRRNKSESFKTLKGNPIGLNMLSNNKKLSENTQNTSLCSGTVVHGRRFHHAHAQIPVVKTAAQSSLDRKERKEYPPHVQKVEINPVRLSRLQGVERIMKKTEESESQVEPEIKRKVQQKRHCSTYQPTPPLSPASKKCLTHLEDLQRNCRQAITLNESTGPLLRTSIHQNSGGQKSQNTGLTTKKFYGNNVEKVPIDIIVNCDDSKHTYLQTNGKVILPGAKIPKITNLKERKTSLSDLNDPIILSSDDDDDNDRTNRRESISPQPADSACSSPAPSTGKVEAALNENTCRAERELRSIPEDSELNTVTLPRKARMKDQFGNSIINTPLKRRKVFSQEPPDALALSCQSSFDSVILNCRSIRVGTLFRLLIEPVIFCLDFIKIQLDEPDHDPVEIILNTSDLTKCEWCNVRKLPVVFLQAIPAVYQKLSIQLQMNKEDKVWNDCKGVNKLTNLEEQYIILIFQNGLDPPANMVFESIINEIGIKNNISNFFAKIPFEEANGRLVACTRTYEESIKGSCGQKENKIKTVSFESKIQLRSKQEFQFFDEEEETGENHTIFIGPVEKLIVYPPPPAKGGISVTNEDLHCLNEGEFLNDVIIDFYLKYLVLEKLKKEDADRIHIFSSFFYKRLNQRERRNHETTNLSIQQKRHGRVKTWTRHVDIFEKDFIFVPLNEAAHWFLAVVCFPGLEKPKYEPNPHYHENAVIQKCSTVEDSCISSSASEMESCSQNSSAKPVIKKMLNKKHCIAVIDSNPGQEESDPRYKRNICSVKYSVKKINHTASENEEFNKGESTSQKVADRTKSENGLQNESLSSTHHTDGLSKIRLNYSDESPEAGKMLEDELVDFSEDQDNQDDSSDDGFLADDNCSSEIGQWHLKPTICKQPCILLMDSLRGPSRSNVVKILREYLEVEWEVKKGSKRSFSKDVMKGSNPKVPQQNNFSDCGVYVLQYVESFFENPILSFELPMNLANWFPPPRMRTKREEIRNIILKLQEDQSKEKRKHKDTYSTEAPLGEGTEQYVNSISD

[15] = target: T5, Bcl-2-related protein A1; assay: Bfl-1 binding inhibitors, SAR follow-up, biochemical, fluorescence polarization (AID 1070)
[16] = target: T7, Protein skinhead-1 (Caenorhabditis elegans, UniProt P34707); assay type: functional
T7 sequence (P34707 whole entry): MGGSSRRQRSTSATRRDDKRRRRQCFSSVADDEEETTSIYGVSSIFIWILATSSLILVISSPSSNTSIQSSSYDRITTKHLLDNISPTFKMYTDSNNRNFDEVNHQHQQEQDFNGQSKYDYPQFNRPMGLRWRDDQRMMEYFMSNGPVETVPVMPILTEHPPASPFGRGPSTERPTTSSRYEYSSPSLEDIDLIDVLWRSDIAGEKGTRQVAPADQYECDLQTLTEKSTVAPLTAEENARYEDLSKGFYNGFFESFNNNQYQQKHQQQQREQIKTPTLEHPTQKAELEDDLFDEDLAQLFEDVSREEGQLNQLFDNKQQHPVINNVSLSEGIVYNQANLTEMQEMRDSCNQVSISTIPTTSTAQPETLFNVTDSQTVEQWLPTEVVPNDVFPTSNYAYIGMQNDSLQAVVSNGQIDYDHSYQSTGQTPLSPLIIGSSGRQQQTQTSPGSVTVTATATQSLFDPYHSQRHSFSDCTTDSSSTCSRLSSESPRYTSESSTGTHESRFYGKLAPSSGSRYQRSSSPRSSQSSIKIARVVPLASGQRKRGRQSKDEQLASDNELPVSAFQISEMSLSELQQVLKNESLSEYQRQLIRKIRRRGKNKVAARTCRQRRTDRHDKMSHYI

[17] = tested on: HeLa; assay: viability loss in HeLa cells – cell-based, 24 h, cherry-picked samples, cytotoxicity control, dose response (AID 504726); assay type: functional; settings: Homo sapiens;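 note: potency for cytotoxicity as loss of luminescence signal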
[18] = Vero E6 cell cytotoxicity, dose response, cytotoxicity control for non-replicating M. tuberculosis project, secondary assay (AID 492998); assay type: functional, VeroE6; settings: Vero C1008
[19] = THP-1 cell cytotoxicity, dose response, cytotoxicity control for non-replicating M. tuberculosis project (AID 489025); assay type: functional
[20] = cells; assay type: functional

Luciferin 4-monooxygenase, sequence (P08659 whole entry): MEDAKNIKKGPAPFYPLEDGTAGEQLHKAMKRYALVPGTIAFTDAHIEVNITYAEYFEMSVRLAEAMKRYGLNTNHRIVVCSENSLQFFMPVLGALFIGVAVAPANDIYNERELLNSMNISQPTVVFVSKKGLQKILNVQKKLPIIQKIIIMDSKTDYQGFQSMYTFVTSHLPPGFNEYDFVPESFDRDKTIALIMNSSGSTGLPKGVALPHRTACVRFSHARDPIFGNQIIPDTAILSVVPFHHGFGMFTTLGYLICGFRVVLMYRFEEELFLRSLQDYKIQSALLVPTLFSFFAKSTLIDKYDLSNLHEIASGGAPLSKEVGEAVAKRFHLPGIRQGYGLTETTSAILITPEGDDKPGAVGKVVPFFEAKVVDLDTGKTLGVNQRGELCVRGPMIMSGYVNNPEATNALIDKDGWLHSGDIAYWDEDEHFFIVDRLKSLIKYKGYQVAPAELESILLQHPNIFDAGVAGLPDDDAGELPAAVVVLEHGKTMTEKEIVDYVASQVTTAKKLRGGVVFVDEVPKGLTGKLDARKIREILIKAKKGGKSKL
FAD-linked sulfhydryl oxidase ALR, sequence (P55789 whole entry): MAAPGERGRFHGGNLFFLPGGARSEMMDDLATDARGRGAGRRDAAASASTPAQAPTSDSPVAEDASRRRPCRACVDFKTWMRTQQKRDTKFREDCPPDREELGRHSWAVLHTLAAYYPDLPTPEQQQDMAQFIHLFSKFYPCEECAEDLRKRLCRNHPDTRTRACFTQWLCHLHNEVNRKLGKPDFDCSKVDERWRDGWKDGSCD

CC(Nc1ccccc1N1CCCCC1)C(=O)N1CCc2ccccc21 (stereo not drawn)
CC50 [1]: > 50 µM (active)
IC50 [2]: 15.4 µM (active)

O=C(C1=C[C@H](c2ccc(Br)cc2)C[C@H](OCCCCO)O1)N1CCN(Cc2ccc3c(c2)OCO3)CC1
EC50 [3]: > 60 µM (not active)
CC50 [4]: > 40 µM (active)
EC50 [5]: 346 nM (active)
EC50 [6]: > 195 µM (not active)

Clc1c(CSc2nc3ccccc3o2)nc2ccccn12
AC50 [7]: 7.37 µM (active)
EC50 [8]: > 50 µM (not active)
EC50 [9]: 9.33 µM (active)

Cc1ccc(-n2nnc(-c3cccnc3Cl)n2)cc1
IC50 [10]: 9.03 µM (active)
IC50 [11]: > 100 µM (inactive)
IC50 [12]: 3.18 µM (active)
IC50 [13]: > 100 µM (not active)
IC50 [14]: 4.03 µM (active)
IC50 [15]: > 100 µM (not active)

COc1cc(/C=C/c2cc(C(=O)O)c3ccccc3n2)ccc1OC(F)F
CC50 [1]: 35.7 µM (active)
IC50 [2]: 28.6 µM (active)

Cc1ccc(-c2nnc(O)c(O)c2N=Nc2ccccc2)cc1
CC50 [4]: > 40 µM (active)

c1ccc(-c2nc3cc4ccccc4cc3[nH]2)nc1
IC50 [16]: 9.19 µM (active)
EC50 [8]: 14.6 µM (active)
EC50 [9]: 6.86 µM (active)

Cc1c(C(=O)N2CCN(S(=O)(=O)c3ccccc3F)CC2)oc2c(Cl)cccc12
CC50 [1]: 31.6 µM (active)
IC50 [16]: > 100 µM (inactive)
IC50 [2]: > 50 µM (active)

COc1ccccc1CNC(=O)c1ccc(SC)cc1OC
CC50 [1]: > 50 µM (active)
CC50 [4]: > 40 µM (active)

Cc1cc(NC(=O)CCC(=O)N(CCC(C)C)C(C(=O)NC2CCCC2)c2cccnc2)no1 (stereo not drawn)
AC50 [17]: > 350 µM (inactive)

O=C(N/N=C\c1ccc([N+](=O)[O-])o1)c1cncc(Br)c1
EC50 [3]: > 60 µM (not active)
CC50 [18]: > 20 µM (active)
CC50 [19]: 27.4 µM (active)
IC50 [20]: 3.94 µM (active)
AC50 [17]: > 350 µM (inactive)
EC50 [5]: 389 nM (active)
